We go through 1 substance from patent US10080779B2, “Method for increasing the expression of anti-microbial peptides by keratinocytes comprising administering a composition comprising IL-17, TNF-alpha and OSM” (Universite D'Angers, priority 2004, dated 2018).

The subject of assay [1] is normal human keratinocytes (NHEK). As to the kind of experiment: Cytokine cocktails on S100A7, hBD2/4, KRT10 mRNA in NHEK (RT-Q-PCR). The class given is cell-based. The settings on record: NHEK 24 hrs, 1 ng/ml each. How it is done:
Quantitative real time PCR was carried out using the LightCycler-FastStart DNA Master^PLUS SYBR Green I kit (Roche, Mannheim, Germany). The reaction components were 1× FastStart DNA Master^PLUS SYBR Green I and 0.5 μM of forward and reverse primers for S100A7 (forward 5′-[…]-3′ (SEQ ID No: 9) and reverse 5′-[…]-3′ (SEQ ID No: 10)), S100A8 (Pattyn, Speleman et al. 2003), S100A9 (forward 5′-[…]-3′ (SEQ ID No: 11) and reverse 5′-[…]-3′ (SEQ ID No: 12)), hBD2/4 (forward 5′-[…]-3′ (SEQ ID No: 13) and reverse 5′-[…]-3′ (SEQ ID No: 14)), KRT10 (forward 5′-[…]-3′ (SEQ ID No: 15) and reverse 5′-[…]-3′ (SEQ ID No: 16)), and hydroxymethyl-bilane synthase (HMBS) as a housekeeping gene (Vandesompele, De Preter et al. 2002). After cDNA fluorescent quantification using propidium iodide, 250 ng, 25 ng and 2.5 ng of cDNA were added as PCR template in the LightCycler glass capillaries. The cycling conditions comprised a 10 min polymerase activation at 95° C. and 50 cycles at 95° C. for 10 s, 64° C. for 5 s and 72° C. for 18 s with a single fluorescence measurement. […] A mathematical model was used to determine the relative quantification of target genes compared to HMBS reference gene (Pfaffl 2001).
To that aim, confluent normal human keratinocytes (NHEK) were treated for 24 hrs with the indicated mix of cytokines (each cytokine at 1 ng/ml final concentration). Total RNA was extracted, reverse-transcribed and the expression of the selected genes was analyzed by real-time PCR as described.

Another assay relates to RHE. As to the kind of experiment: RHE histology and immunohistochemistry (Example 14). The class given is cell-based, human. The settings on record: single cytokines, 72 h. How it is done:
Normal human epidermal keratinocytes (NHEK) were obtained as previously described, from surgical samples of healthy breast skin (Boniface et al, 2005). NHEK were cultured to 80% of confluence allowing the expression of a large panel of keratinocyte differentiation markers, and then starved for 24 h in Keratinocyte SFM containing 0.03 mM Ca^2+ (Invitrogen Life Technologies, Cergy Pontoise, France) before stimulation. Confluent differentiated cells were stimulated with or without recombinant IL-17A, OSM, TNFα, IL-22 and IL-1α alone at maximum effective concentrations (reported previously around 10 ng/ml (Boniface et al, 2005 and Boniface et al, 2007)) or in combination (R&D systems Europe, Lille, France) during 2 h to 72 h for mRNA quantification. RHE were generated on polycarbonate culture inserts, from surgical samples of paediatric foreskins as previously described (Guenou et al., 2009). RHE were stimulated with or without recombinant IL-17A, OSM, TNFα, IL-22 and IL-1α alone or in combination, with or without a Janus protein Tyrosine Kinases (JAKs) inhibitor 10 μM (Calbiochem, 420099), during 24 h for mRNA quantification or during 72 h for immunohistological analysis.
RHE were washed and fixed with formaldehyde solution. Fixed tissues were dehydrated with increasing ethanol concentrations, embedded in paraffin and sections were carried out using a microtome (4 μm thickness). The sections were deparaffinised, washed and incubated with hydrogen peroxide. The sections were incubated with anti-CK10 (SantaCruz, SC-23877), anti-LOR (Eurogentec, PRB-145P), anti-FLG (SantaCruz, SC-66192), anti-IVL (Biomedical Technologies, BT-601), anti-S100A7 (Clinisciences, IMG-409A) and then detected using a biotin-conjugated secondary antibody (Vector, RTU vectastain universal quick kit, PK-7800). After peroxidase-conjugated streptavidine (Vector, RTU vectastain universal quick kit, PK-7800) and peroxidase substrate addition (Dako, Substrat hyper-sensible AEC+), nuclei were counter-stained using a solution of hematoxylin. Sections were observed using a NIKON E400 microscope. The images were captured using a NIKON DS-Ril and processed with NIS-Elements 3.10 software.

Assay [2] relates to NHEK. Put plainly: RT-QPCR of antimicrobial peptide and chemokine genes in NHEK. The class given is cell-based, human. The settings on record: 10 ng/ml, 24 h. How it is done:
NHEK were obtained as previously described, from surgical samples of healthy breast skin (Boniface et al, 2005). NHEK were cultured to 80% of confluence and then starved for 24 h in Keratinocyte SFM without addition of growth factors before stimulation. Cells were stimulated with or without 10 ng/ml of recombinant IL-17A, OSM, TNFα, IL-22 and IL-1α alone or in combination (R&D systems Europe, Lille, France) during 24 h for mRNA quantification or 48 h to 96 h for protein quantification.
NHEK and skin total RNA were isolated and reverse-transcribed as previously described (Boniface et al, 2005). Quantitative real time PCR was carried using the LightCycler-FastStart DNA Master SYBR® Green I kit on LightCycler 480 (Roche Diagnostics, Meylan, France). The reaction components were 1×DNA Master Mix, and 0.5 μM of HPLC purified sense and anti-sense oligonucleotides purchased from Eurogentec (Eurogentec France, Angers, France), designed using Primer3 software. Samples were normalized to three independent control housekeeping genes (G3PDH, RPL13A or ACTB for human samples and G3PDH, HMBS or B2m for mouse samples) and reported according to the ΔΔCT method as RNA fold increase: 2^ΔΔCT=2^ΔCT sample−ΔCT eference. For comparison of normal skin and psoriatic skin the REST 2008 software was used (Pfaffl et al., 2002).

Assay [3] has as its system NHEK. As to the kind of experiment: In vitro keratinocyte migration assay. The settings on record: mitomycin-treated wounded NHEK; OSM 10 ng/ml, IL-31 100 ng/ml. The class given is cell-based, human. How it is done: Keratinocytes were cultured in wells pre-coated with type I collagen (200 μg/ml, Institut Jacques Boy, Reims, France) until they reached 80% confluency. Cells were starved for 48 h in Keratinocyte SFM and then treated with 10 μg/ml of mitomycin C (Sigma) for 2 h to prevent cell proliferation. A cell-free area was created by scraping the keratinocyte monolayer with a plastic pipette tip. Keratinocytes migration to the cell-free area was evaluated after 48 h of culture in the absence or presence of EGF or OSM. Using an inverted phase contrast microscope. The number of migrating keratinocytes was counted in 4 non-overlapping fields. Values represent the mean±SEM of cells per mm^2 beyond the frontiers of the in vitro injury. Student's t test was used for statistical analysis.

Assay [4] relates to NHEK. As to the kind of experiment: cDNA macroarrays analysis of 36 cytokines on 154 genes in NHEK. It is filed as cell-based, human. The conditions noted are these: 10 ng/ml, 24 h. How it is done:
The comparison of the effects of 36 different cytokines on the expression of 154 genes of potential interest for skin physiology was performed using home-made cDNA macroarrays analysis. After cytokine stimulation, total RNA was extracted using TRIzoI® Reagent (Invitrogen life Technologies) and conventional 33P-cDNA target synthesis and hybridization were performed (Boniface et al, 2007). Genes were considered regulated if expression levels differed more than 3-fold relative to untreated control and 3-fold relative to mean background noise.

Consider “OSM: human recombinant oncostatin M, cytokine of the IL-6 family”, for which, in assay [1], the “Decrease of the activity of the 5 cytokines reference mix on omission of the cytokine, S100A7” value is listed as 3 fold and the “Decrease of the activity of the 5 cytokines reference mix on omission of the cytokine, hBD2/4” value turned out to be 2.5 fold. In addition, in the assay with RHE (RHE), the “CK10, LOR and FLG expression (immunohistology)” value is “decreases expression of CK10, LOR and FLG”; the “IVL expression (immunohistology)” value is given as “strongly”; the “S100A7 expression (immunohistology)” value is on record as “strongly induced”. For the same substance, the RHE histology result with RHE is “significant keratinocyte hyperplasia”. Further, the “Number of the 21 chemokine and antimicrobial peptide genes upregulated” value in the assay on NHEK [2] is on record as 13. In the assay with NHEK [3], the “Keratinocyte migration to the cell-free area” value was “important migration of NHEK, similar to that observed in the presence of EGF”. Besides, in the assay with NHEK [4], the “Number of genes (of 154) whose expression is modified with at least a three fold increase or decrease” value is on record as “at least five genes”.
